Experiment [1] deals with mouse podocytes. As to the kind of experiment: Scratch, wound-healing assay (podocyte migration). The experiment is classed as cell-based. Particulars: PAN or LPS treatment, cotreatment, 48 hours. As to the method:
The effect of identified novel compounds on podocyte migration was assessed using a classic scratch, wound-healing assay as described. (Mathieson, Nat Rev Nephrol, 2012.) Differentiated mouse podocytes per well were seeded overnight in type-I collagen coated wells of a 24 well plate. Each well was subsequently scratched using a sterile 200 μI pipette tip, washed and placed into fresh culture medium. Cells in wells were also treated with PAN, LPS, pyr or a combination, as described in the text. After 48 h, cells were fixed with 2% paraformaldehyde and stained with DAPI. Images of cells near scratched surfaces and their DAPI-stained nuclei were acquired using a 10× objective using a Zeiss Axio Observer D1 microscope (Carl Zeiss Group, Hartford, Conn.) and analyzed using ImageJ software (NIH). Images using transmitted light were also acquired at the beginning and the end of the experiment and were used to align images of pre- and post-treated cells for counting cells that had migrated into similar sized fields. The data shown represent the mean±SEM of three independent experiments.
Next, we assessed the efficacy of this small molecule in a functional assay. In vitro, PAN- or LPS-mediated injury promotes directional migration and wound closure by podocytes in a scratch wound-healing assay.

Experiment [2] concerns the target T1, human β1 integrin (Homo sapiens, UniProt P05556).
T1 construct: endogenous in cells; host or cells: conditionally immortalized human podocytes (Saleem et al. 2002)
The experiment is described as follows: Active β1 integrin (antibody 12G10) in PAN-treated human podocytes. The experiment is classed as cell-based. To be noted: PAN treatment (FIG. 9D). From the text: FIG. 9A-9E. An An β1-integrin agonist pyrintegrin (pyr) protects podocytes from damage. (A) The published chemical structure of pyr. (Xu et al. PNAS, 2010.) (B-D) Pyr protects podocytes from PAN-induced loss of F-actin fibers and focal adhesions and enhances active β1-integrin levels. (B) Graphs showing the effect of pyr on the number of F-actin fibers per cell and the number of vinculin spots per cell under each treatment condition. Data shown are means 6 SEMs per cell from three replicate wells (n=500-1000 cells per well). **P, 0.01; ***P, 0.001; ****P, 0.001. (C) Representative fluorescence images of murine podocytes after various treatments and after staining with phalloidin and antiactive β1 antibody. […] (D) Representative fluorescence images of human podocytes after various treatments as shown. […] Representative images (left panel) and a bar graph (right panel) showing confocal microscopy-based quantitation of the number of migrating podocytes in a scratch wound-healing assay Lines represent the wound margins at the beginning of the experiment (0 hours). […]
Integrin-α3β1 is highly expressed in podocytes and primarily binds to the GBM-expressed ligand laminin, thereby mediating stable adhesion of podocytes to the GBM. […] Given that pyrintegrin affects integrin-β1, (Xu et al., PNAS, 2010.) we quantified the level of β1 in treated cells. […]

Here are results for one molecule from patent US20170269060A1, “Assays and Compounds to Treat Kidney Diseases” (Rush University Medical Center, priority 2014, published 2017).

T1 sequence (P05556 21-798): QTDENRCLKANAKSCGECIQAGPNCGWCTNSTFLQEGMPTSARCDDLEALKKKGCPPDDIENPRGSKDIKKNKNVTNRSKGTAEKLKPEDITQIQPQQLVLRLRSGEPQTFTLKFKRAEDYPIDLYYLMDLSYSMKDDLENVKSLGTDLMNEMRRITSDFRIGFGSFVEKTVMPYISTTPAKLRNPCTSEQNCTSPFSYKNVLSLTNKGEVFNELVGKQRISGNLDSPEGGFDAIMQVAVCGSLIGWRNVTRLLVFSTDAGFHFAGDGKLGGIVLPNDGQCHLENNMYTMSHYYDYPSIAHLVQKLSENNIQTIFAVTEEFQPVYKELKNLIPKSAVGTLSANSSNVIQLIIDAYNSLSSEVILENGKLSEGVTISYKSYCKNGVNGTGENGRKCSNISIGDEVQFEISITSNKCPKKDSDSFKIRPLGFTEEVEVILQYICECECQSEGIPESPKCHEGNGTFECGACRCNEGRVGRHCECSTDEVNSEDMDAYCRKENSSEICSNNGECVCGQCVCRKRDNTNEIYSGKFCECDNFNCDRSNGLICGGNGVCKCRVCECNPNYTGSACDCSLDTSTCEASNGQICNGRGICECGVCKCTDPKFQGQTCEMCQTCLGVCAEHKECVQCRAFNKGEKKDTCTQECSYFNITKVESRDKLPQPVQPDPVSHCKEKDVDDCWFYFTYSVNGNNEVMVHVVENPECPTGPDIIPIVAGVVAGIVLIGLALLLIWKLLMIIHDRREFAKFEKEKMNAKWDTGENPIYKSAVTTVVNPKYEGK
T1 sequence (P26006 33-1051 partner): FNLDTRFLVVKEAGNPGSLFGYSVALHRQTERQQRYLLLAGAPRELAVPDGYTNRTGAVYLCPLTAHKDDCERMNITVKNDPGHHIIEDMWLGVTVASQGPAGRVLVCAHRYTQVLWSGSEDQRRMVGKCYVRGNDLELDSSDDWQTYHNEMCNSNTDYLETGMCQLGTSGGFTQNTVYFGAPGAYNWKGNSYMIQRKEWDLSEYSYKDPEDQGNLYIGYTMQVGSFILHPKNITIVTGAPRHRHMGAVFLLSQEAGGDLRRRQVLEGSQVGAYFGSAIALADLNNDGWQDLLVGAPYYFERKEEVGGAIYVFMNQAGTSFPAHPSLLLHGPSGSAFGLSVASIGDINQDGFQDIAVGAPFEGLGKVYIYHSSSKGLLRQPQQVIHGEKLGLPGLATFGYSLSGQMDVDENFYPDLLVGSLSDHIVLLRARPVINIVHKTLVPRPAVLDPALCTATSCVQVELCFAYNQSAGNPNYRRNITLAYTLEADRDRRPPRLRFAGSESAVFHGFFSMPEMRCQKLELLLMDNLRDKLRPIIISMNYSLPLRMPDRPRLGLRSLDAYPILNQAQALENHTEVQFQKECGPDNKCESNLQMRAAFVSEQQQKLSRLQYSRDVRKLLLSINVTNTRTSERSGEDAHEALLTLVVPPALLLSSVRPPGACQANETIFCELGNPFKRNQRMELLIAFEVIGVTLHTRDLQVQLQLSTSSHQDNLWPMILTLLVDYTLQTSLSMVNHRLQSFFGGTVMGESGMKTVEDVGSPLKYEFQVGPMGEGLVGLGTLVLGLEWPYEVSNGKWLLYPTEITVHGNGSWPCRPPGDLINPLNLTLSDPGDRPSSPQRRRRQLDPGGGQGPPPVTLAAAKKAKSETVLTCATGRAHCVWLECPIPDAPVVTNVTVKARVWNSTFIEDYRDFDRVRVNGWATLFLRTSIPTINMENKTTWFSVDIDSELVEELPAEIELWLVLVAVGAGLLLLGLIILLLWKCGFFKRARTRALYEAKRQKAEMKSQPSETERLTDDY

For `O=S(=O)(NCC1CC1)c1ccc(Nc2nccc(N3CCCc4cc(O)ccc43)n2)cc1` [Pyrintegrin], the “podocyte motility and wound closure” value in experiment [1] is “significantly reduced podocyte motility and wound closure”. Besides, the “level of active β1 integrin in human podocytes (antibody 12G10)” value in experiment [2] is “rescued”.
